How the values were obtained:
ERα [1] = molecular target: T1, ERα (Homo sapiens, UniProt P03372); format: cell-based; set-up: T47D cells transfected with the luciferase gene fused to the estrogen response element (ERE); endogenous in cells; host or cells: T47D; settings: T47D cells, ERE-luciferase
ERα [2] = molecular target: T1, ERα; settings: read-out: ERα IC50; purified ERα, [I125]-estradiol
[3] = Example 20: DIO mice, daily s.c. dosing; format: in vivo
GLP-1 receptor [4] = molecular target: T2, GLP-1 receptor (Homo sapiens, UniProt P43220); experiment: GLP-1 binding, [I125]-GLP-1 SPA with receptor membrane extracts; settings: read-out: GLP-1 IC50, Example 22, GLP-1 receptor cell membrane extracts
T2 construct: expressed in transfected cells; host or cells: HEK293

GLP-1 receptor [5] = molecular target: T2, GLP-1 receptor; experiment: GLP-1 activity (cAMP induction), CRE-luciferase reporter assay in HEK293 cells; format: cell-based; settings: read-out: GLP-1 EC50; Example 22; HEK293 cells co-transfected with GLP-1 receptor and CRE-luciferase
glucagon receptor = molecular target: T3, glucagon receptor (Homo sapiens, UniProt P47871); experiment: glucagon antagonist activity, reduction of glucagon-induced cAMP production in an in vitro assay; format: cell-based; settings: PLA at position 6 versus positions 4 and 5
T3 construct: expressed in transfected cells; host or cells: HEK293

[6] = Stability analysis in human plasma (estrogen release); format: in vitro ADME; settings: 1 mg/mL, 100% human plasma, pH 7.4, 37° C.
GLP-1 receptor [7] = molecular target: T2, GLP-1 receptor; experiment: GLP-1 receptor activation, cAMP induction in HEK293 cells over-expressing the receptor (luciferase reporter); format: cell-based
[8] = solubility in aqueous solution; format: physicochemical

T2 sequence (P43220 24-463, species assumed): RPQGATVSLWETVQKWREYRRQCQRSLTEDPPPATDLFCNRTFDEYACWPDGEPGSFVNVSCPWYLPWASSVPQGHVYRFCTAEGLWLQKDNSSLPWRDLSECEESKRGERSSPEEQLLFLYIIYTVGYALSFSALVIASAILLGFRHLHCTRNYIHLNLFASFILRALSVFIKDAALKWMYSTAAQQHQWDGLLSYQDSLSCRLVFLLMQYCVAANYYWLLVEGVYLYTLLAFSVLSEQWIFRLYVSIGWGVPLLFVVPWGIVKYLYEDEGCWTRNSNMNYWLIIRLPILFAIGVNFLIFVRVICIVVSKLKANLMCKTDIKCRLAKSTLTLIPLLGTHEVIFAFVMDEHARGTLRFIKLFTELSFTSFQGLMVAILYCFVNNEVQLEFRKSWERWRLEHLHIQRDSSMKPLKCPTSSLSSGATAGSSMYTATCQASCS
T1 sequence (P03372 whole entry, the tested form may be a part): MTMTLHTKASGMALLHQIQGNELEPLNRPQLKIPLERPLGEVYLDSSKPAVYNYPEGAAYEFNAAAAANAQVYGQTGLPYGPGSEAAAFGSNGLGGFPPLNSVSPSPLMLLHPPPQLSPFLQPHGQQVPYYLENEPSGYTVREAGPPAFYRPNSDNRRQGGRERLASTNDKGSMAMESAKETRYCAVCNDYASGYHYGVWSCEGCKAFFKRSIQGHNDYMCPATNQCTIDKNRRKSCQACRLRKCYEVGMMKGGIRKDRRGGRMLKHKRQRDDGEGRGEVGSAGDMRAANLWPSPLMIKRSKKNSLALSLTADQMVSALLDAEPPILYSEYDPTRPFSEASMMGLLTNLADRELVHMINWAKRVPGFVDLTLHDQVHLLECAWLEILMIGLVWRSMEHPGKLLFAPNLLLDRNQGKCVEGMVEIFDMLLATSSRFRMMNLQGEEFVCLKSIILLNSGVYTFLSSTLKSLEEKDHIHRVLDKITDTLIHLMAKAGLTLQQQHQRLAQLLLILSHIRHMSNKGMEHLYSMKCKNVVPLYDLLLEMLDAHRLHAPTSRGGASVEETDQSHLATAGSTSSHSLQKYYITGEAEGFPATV
T3 sequence (P47871 26-477): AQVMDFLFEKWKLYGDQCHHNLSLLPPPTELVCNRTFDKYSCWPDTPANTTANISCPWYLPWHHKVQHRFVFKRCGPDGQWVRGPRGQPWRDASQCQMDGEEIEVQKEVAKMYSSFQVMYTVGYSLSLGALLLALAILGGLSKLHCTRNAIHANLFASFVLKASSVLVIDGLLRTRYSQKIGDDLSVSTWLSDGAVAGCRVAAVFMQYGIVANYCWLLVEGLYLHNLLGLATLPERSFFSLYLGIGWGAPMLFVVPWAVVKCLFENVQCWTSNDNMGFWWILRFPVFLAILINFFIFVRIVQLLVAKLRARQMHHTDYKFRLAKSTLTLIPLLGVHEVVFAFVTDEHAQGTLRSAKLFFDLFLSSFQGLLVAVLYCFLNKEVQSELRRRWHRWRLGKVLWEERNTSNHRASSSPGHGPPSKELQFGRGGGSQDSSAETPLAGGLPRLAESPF

Q: What does the source list for `CC[C@H](C)[C@H](NC(=O)[C@H](Cc1ccccc1)NC(=O)[C@H](CCC(=O)O)NC(=O)[C@H](CCCCN)NC(=O)[C@H](C)NC(=O)[C@H](C)NC(=O)[C@H](CCC(N)=O)NC(=O)[C@H](CCC(=O)O)NC(=O)[C@H](CCC(=O)O)NC(=O)[C@H](CC(C)C)NC(=O)[C@H](Cc1ccc(O)cc1)NC(=O)[C@H](CO)NC(=O)[C@H](CO)NC(=O)[C@@H](NC(=O)[C@H](CC(=O)O)NC(=O)[C@H](CO)NC(=O)[C@@H](NC(=O)[C@H](Cc1ccccc1)NC(=O)[C@@H](NC(=O)CNC(=O)[C@H](CCC(=O)O)NC(=O)C(C)(C)NC(=O)[C@@H](N)Cc1c[nH]cn1)[C@@H](C)O)[C@@H](C)O)C(C)C)C(=O)N[C@@H](C)C(=O)N[C@@H](Cc1c[nH]c2ccccc12)C(=O)N[C@@H](CC(C)C)C(=O)N[C@H](C(=O)N[C@@H](CCCCN)C(=O)NCC(=O)NCC(=O)N1CCC[C@H]1C(=O)N[C@@H](CO)C(=O)N[C@@H](CO)C(=O)NCC(=O)N[C@@H](C)C(=O)N1CCC[C@H]1C(=O)N1CCC[C@H]1C(=O)N1CCC[C@H]1C(=O)N[C@@H](CO)C(=O)N[C@@H](CCCCNC(=O)CCC(=O)Oc1ccc2c(c1)CC[C@@H]1[C@@H]2CC[C@]2(C)[C@@H](OC(C)=O)CC[C@@H]12)C(N)=O)C(C)C` [GLP-1/Estrogen(3-ester)]?
A: EC50 (ERα [1]): 13 ± 1 pM; IC50 (ERα [2]): 198000 ± 16800 pM; fat mass ([3]; FIG. 9b): least amount of fat mass; change in body weight ([3]; s.c. once per day, after 7 days): greatest decrease in body weight; IC50 (GLP-1 receptor [4]): 627 ± 46 pM; EC50 (GLP-1 receptor [5]): 14 ± 1 pM

Q: Which glucagon antagonist potency (glucagon receptor) does the source give for “PLA6 analog: glucagon peptide, first 5 amino acids removed from the N-terminus, remaining N-terminal amino group replaced with a hydroxyl group” here?
A: appreciably more potent antagonist than glucagon analogs having a slightly extended N-terminus

Q: With `CC[C@H](C)[C@H](NC(=O)[C@H](Cc1ccccc1)NC(=O)[C@H](CCC(=O)O)NC(=O)[C@H](CCCCN)NC(=O)[C@H](C)NC(=O)[C@H](C)NC(=O)[C@H](CCC(N)=O)NC(=O)[C@H](CCC(=O)O)NC(=O)[C@H](CCC(=O)O)NC(=O)[C@H](CC(C)C)NC(=O)[C@H](Cc1ccc(O)cc1)NC(=O)[C@H](CO)NC(=O)[C@H](CO)NC(=O)[C@@H](NC(=O)[C@H](CC(=O)O)NC(=O)[C@H](CO)NC(=O)[C@@H](NC(=O)[C@H](Cc1ccccc1)NC(=O)[C@@H](NC(=O)CNC(=O)[C@H](CCC(=O)O)NC(=O)C(C)(C)NC(=O)[C@@H](N)Cc1c[nH]cn1)[C@@H](C)O)[C@@H](C)O)C(C)C)C(=O)N[C@@H](C)C(=O)N[C@@H](Cc1c[nH]c2ccccc12)C(=O)N[C@@H](CC(C)C)C(=O)N[C@H](C(=O)N[C@@H](CCCCN)C(=O)NCC(=O)NCC(=O)N1CCC[C@H]1C(=O)N[C@@H](CO)C(=O)N[C@@H](CO)C(=O)NCC(=O)N[C@@H](C)C(=O)N1CCC[C@H]1C(=O)N1CCC[C@H]1C(=O)N1CCC[C@H]1C(=O)N[C@@H](CO)C(=O)N[C@@H](CCCCNC(=O)COc1ccc2c(c1)CC[C@@H]1[C@@H]2CC[C@]2(C)[C@@H](O)CC[C@@H]12)C(N)=O)C(C)C` [GLP-1/Estrogen(3-ether)] as the compound, how does the “estrogen release in plasma” value [6] read?
A: no estrogen release over 72 hours

Q: For “SEQ ID NO: 22: glucagon analog in which the native glutamine at position 3 is substituted with glutamic acid”, which “selectivity for the GLP-1 receptor over the glucagon receptor” value (GLP-1 receptor [7]) is on record?
A: approximately a tenfold selectivity for the GLP-1 receptor

Q: With `CSCC[C@H](NC(=O)[C@H](CC(C)C)NC(=O)[C@H](Cc1c[nH]c2ccccc12)NC(=O)[C@H](CCC(N)=O)NC(=O)[C@@H](NC(=O)[C@H](Cc1ccccc1)NC(=O)[C@H](CC(=O)O)NC(=O)[C@H](CCC(N)=O)NC(=O)[C@H](C)NC(=O)[C@H](CCCN=C(N)N)NC(=O)[C@H](CCCN=C(N)N)NC(=O)[C@H](CO)NC(=O)[C@H](CC(=O)O)NC(=O)[C@H](CC(C)C)NC(=O)[C@H](Cc1ccc(O)cc1)NC(=O)[C@H](CCCCN)NC(=O)[C@H](CO)NC(=O)[C@H](Cc1ccc(O)cc1)NC(=O)[C@H](CC(=O)O)NC(=O)[C@H](CO)NC(=O)[C@@H](NC(=O)[C@H](Cc1ccccc1)NC(=O)[C@@H](NC(=O)CNC(=O)[C@H](CCC(N)=O)NC(=O)[C@H](CO)NC(=O)[C@@H](N)Cc1c[nH]cn1)[C@@H](C)O)[C@@H](C)O)C(C)C)C(=O)N[C@@H](CC(N)=O)C(=O)N[C@H](C(=O)O)[C@@H](C)O` [Glucagon] as the compound, how does the “solubility in aqueous solution” value [8] read?
A: poor solubility in aqueous solution, particularly at physiological pH
